Patent publication US8920788B2, “High-molecular weight conjugate of physiologically active substances” (priority 2008, dated 2014)
Where a name gives a salt, the structure may show the parent alone.

Experiments:
[1] = test system: Mouse colon cancer, Colon 26; experiment: Antitumor activity, subcutaneously transplanted Colon 26 in mice; type: in vivo, female CDF1 mice; conditions: dose 15 mg/kg, once into tail vein
Source text: Mouse colon cancer, Colon 26, maintained by serial subcutaneous subculture in mice, was minced into about 2-mm cubic fragments, and the fragments were subcutaneously transplanted on the dorsal part of female CDF1 mice with a trocar. Eight days after the tumor transplantation, the high-molecular weight conjugate according to the present invention (Compound 2 and Compound 4) or a control drug (Comparative Compound 1 and doxorubicin hydrochloride) was each administered once into the mouse tail vein in a way such that each mouse received the same dose per body weight in terms of doxorubicin. Each compound was dissolved in a 5% liquid glucose for injection and used. After the administration, the major axis (L mm) and the minor axis (W mm) of the tumor were measured using a caliper, and the tumor volume was calculated by the formula (L×W^2)/2.

[2] = Lethal dose of the control drug; type: in vivo; conditions: control drug of the antitumor test
Protocol: The lethal dose of doxorubicin used as the control drug was 30 mg/kg, and therefore doxorubicin was administered at a dose of 15 mg/kg to perform the antitumor test.

COc1cccc2c1C(=O)c1c(O)c3c(c(O)c1C2=O)C[C@@](O)(C(=O)CO)C[C@@H]3O[C@H]1C[C@H](N)[C@H](O)[C@H](C)O1 [Doxorubicin, doxorubicin hydrochloride]
relative tumor volume based on the tumor volume on the day of administration ([1]; day 0 after administration): 1.00 | relative tumor volume based on the tumor volume on the day of administration ([1]; day 3 after administration): 1.79 | relative tumor volume based on the tumor volume on the day of administration ([1]; day 7 after administration): 3.89 | relative tumor volume based on the tumor volume on the day of administration ([1]; day 10 after administration): 5.27 | relative tumor volume based on the tumor volume on the day of administration ([1]; day 14 after administration): 12.17 | lethal dose [2]: 30 mg/kg
